Values joined by “and” are separate entries in the source; they are usually repeats but may differ in a detail not shown here. Equal values may be shown once.
System: 922993-354-T-J3-PDC complex spheroid viability
Experiment: Anticancer human tumor 922993-354-T-J3-PDC patient-derived endometrial carcinoma cell line growth inhibition [POLQ]
Conditions: for viability, T/C: stronger effect = lower value
Experimental: Multicellular complex tumor spheroid response to Polymerase (POL) inhibitors (novobiocin, ART-558, RP6685) in combination with a variety of drugs and investigational agents in selected tumor cell lines
The POL inhibitors (novobiocin, ART-558, and RP6685) were evaluated both individually and in combination with standard of care and investigational anticancer small molecules within a complex spheroid model of solid tumors. . Complex spheroids include a stromal component modeled by human endothelial cells (HUVEC) and fibroblasts modeled by human mesenchymal stem cells (MSCs). The concentration ranges selected for each drug and investigational agent were based upon clinically achievable concentrations if the clinical Cmax of the agent was known.
Compounds. The drugs and investigational agents: novobiocin (NSC847541), ART-558 (NSC835418), RP-6685 (NSC848927), peposertib (NSC802822), ceralasertib (NSC780249), elimusertib (NSC800525), camonsertib (NSC841442), AZD-1390 (NSC803789), olaparib (NSC753686), talazoparib (NSC767125), rucaparib (NSC756644), sotorasib (NSC818433), MRTX-1133 (NSC836407), SN-38 (NSC673596), topotecan (NSC609699), epotoside (NSC141540), doxorubicin (NSC123127), gemcitabine (NSC613327), 5-fluorouracil (NSC19893), paclitaxel (NSC125973), vemurafenib (NSC761431), MSA-2 (NSC828583), SN-011 (NSC837082), adavosertib (NSC754352), prexasertib (NSC758257), carboplatin (NSC241240) and oxaliplatin (NSC266046), were obtained from the National Cancer Institute (NCI) Developmental Therapeutics Program Chemical Repository (21). The FDA-approved anticancer drug set is available from the Developmental Therapeutics Program at https://dtp.cancer.gov/organization/dscb/obtaining/. […] The stock solutions were prepared in dimethyl sulfoxide (DMSO, Sigma-Aldrich, St. Louis, MO, cat. D2650), except for the platinum compounds which were prepared in saline (Quality Biological, Gaithersburg, MD, cat. 114-055-101), at 800-fold the tested concentration and stored at -70 degrees C prior to their use. All drugs and investigational agents were tested over a range starting from a high concentration at or near the clinical Cmax and decreasing in half-log increments. If the clinical Cmax for an agent had not been determined, the highest concentration tested was 10 microM, except for SN-38, which was tested at a high concentration of 1 microM.
Cell Culture. All cells were maintained in an incubator at 37 degrees C and 5% CO2 with 95% humidity. The PDC lines were cultured according to standard operating procedures established by the NCI PDMR (https://pdmr.cancer.gov). Table 3 of the manuscript, lists the cell lines along with the number of the three cell types plated to form the mct-spheroids and media for tumor cell growth. After thawing, all PDC lines, except 997537-175-T-J1-PDC and 415267-285-R-J2-PDC, were cultured in Matrigel-coated flasks prepared with a working solution of 1X Ham's F-12 nutrient mix, without supplementation (Thermo Fisher Scientific, cat. 11765054), 100 U/mL penicillin-streptomycin (Thermo Fisher Scientific, cat. 15140122), and 2.5% Matrigel (Corning Inc., Corning, NY, cat. 354248) for the first three passages. The two PDC lines 997537-175-T-J1-PDC and 415267-285-R-J2-PDC were cultured on uncoated flasks. The 857933-349-R-J2-PDC line was cultured in 6C/Colon 1B media containing advanced DMEM/F-12 (Thermo Fisher Scientific, cat. 12634028), 10 mM HEPES (Thermo Fisher Scientific, cat. 15630080), 1X GlutaMAX supplement (Thermo Fisher Scientific, cat. 35050061), 0.1 mg/mL primocin (InvivoGen, San Diego, CA, cat. ant-pm-2), 10% defined fetal bovine serum, heat inactivated (HyClone Laboratories Inc., Logan, UT, cat. SH30070.03HI), 50% L-WRN conditioned media (ATCC, cat. CRL-3276), 1.25 mM N-Acetyl-L-cysteine (Sigma-Aldrich, cat. A9165), 10 mM nicotinamide (Sigma-Aldrich, cat. N0636), 1X B-27 supplement (Thermo Fisher Scientific, cat. 17504044), 1X N-2 supplement (Thermo Fisher Scientific, cat. […]
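Note: spheroids exposed to the agents for one week.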
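Throughout, for viability, T/C: 100% = DMSO vehicle control wells.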

**Q.** `O=C(Nc1ccc(O)c(NS(=O)(=O)c2ccc(F)cc2)c1)c1ccc(-c2ccccc2)cc1` was tested. Which viability, T/C (compound 0.0316 µM) did it give?
**A.** 108% and 103% and 104%

**Q.** What about the viability, T/C (compound 0.1 µM) of the same compound?
**A.** 106% and 103% and 91.7%

**Q.** And the viability, T/C (compound 0.316 µM)?
**A.** 104% and 99.2% and 89.1%

**Q.** What about the viability, T/C (compound 1 µM) of the same compound?
**A.** 99.6% and 101% and 99.3%

**Q.** And the viability, T/C (compound 3.16 µM)?
**A.** 108% and 105% and 96.4%

**Q.** And the viability, T/C (compound 10 µM)?
**A.** 112% and 101% and 90.3%

**Q.** And the IC50 (curve of compound)?
**A.** > 10 µM

**Q.** With `CCCS(=O)(=O)Nc1ccc(F)c(C(=O)c2c[nH]c3ncc(-c4ccc(Cl)cc4)cc23)c1F` as the compound, how does the viability, T/C (compound 0.0316 µM) read?
**A.** 101% and 107% and 102%

**Q.** What about the viability, T/C (compound 0.1 µM) of the same compound?
**A.** 102% and 103% and 98.4%

**Q.** What about the viability, T/C (compound 0.316 µM) of the same compound?
**A.** 105% and 106% and 94.1%

**Q.** And the viability, T/C (compound 1 µM)?
**A.** 104% and 107% and 109%

**Q.** And the viability, T/C (compound 3.16 µM)?
**A.** 97.1% and 103% and 105%

**Q.** What about the viability, T/C (compound 10 µM) of the same compound?
**A.** 98.9% and 92.4% and 69.4%

**Q.** And the IC50 (curve of compound)?
**A.** > 10 µM

**Q.** With `O=c1[nH]cc(F)c(=O)[nH]1` + Nc1ccc(C#CCN(C(=O)Cc2ncc(C(F)(F)F)cc2C(F)(F)F)c2ccc(F)cc2)nn1 as the compound, how does the IC50 (curve of first compound, second compound 0.0316 µM) read?
**A.** 5.83 µM

**Q.** And the IC50 (curve of first compound, second compound 0.1 µM)?
**A.** 5.94 µM

**Q.** And the IC50 (curve of first compound, second compound 0.316 µM)?
**A.** 5.66 µM

**Q.** What about the IC50 (curve of first compound, second compound 1 µM) of the same compound?
**A.** 5.75 µM

**Q.** And the IC50 (curve of first compound, second compound 3.16 µM)?
**A.** 5.48 µM

**Q.** And the IC50 (curve of first compound, second compound 10 µM)?
**A.** 5.32 µM

**Q.** And the viability, T/C (second compound 0.0316 µM, first compound 0.0316 µM)?
**A.** 103%

**Q.** And the viability, T/C (second compound 0.0316 µM, first compound 0.1 µM)?
**A.** 105%

**Q.** And the viability, T/C (second compound 0.0316 µM, first compound 0.316 µM)?
**A.** 105%

**Q.** What about the viability, T/C (second compound 0.0316 µM, first compound 1 µM) of the same compound?
**A.** 103%

**Q.** What about the viability, T/C (second compound 0.0316 µM, first compound 3.16 µM) of the same compound?
**A.** 79.9%

**Q.** What about the viability, T/C (second compound 0.0316 µM, first compound 10 µM) of the same compound?
**A.** 23.6%

**Q.** And the viability, T/C (second compound 0.1 µM, first compound 0.0316 µM)?
**A.** 106%

**Q.** And the viability, T/C (second compound 0.1 µM, first compound 0.1 µM)?
**A.** 103%

**Q.** And the viability, T/C (second compound 0.1 µM, first compound 0.316 µM)?
**A.** 104%

**Q.** What about the viability, T/C (second compound 0.1 µM, first compound 1 µM) of the same compound?
**A.** 102%

**Q.** What about the viability, T/C (second compound 0.1 µM, first compound 3.16 µM) of the same compound?
**A.** 80.7%

**Q.** And the viability, T/C (second compound 0.1 µM, first compound 10 µM)?
**A.** 24.6%

**Q.** What about the viability, T/C (second compound 0.316 µM, first compound 0.0316 µM) of the same compound?
**A.** 104%

**Q.** And the viability, T/C (second compound 0.316 µM, first compound 0.1 µM)?
**A.** 104%

**Q.** What about the viability, T/C (second compound 0.316 µM, first compound 0.316 µM) of the same compound?
**A.** 104%

**Q.** What about the viability, T/C (second compound 0.316 µM, first compound 1 µM) of the same compound?
**A.** 99.6%

**Q.** What about the viability, T/C (second compound 0.316 µM, first compound 3.16 µM) of the same compound?
**A.** 76.8%

**Q.** What about the viability, T/C (second compound 0.316 µM, first compound 10 µM) of the same compound?
**A.** 23.8%

**Q.** And the viability, T/C (second compound 1 µM, first compound 0.0316 µM)?
**A.** 103%

**Q.** And the viability, T/C (second compound 1 µM, first compound 0.1 µM)?
**A.** 98.5%

**Q.** And the viability, T/C (second compound 1 µM, first compound 0.316 µM)?
**A.** 103%

**Q.** And the viability, T/C (second compound 1 µM, first compound 1 µM)?
**A.** 102%

**Q.** What about the viability, T/C (second compound 1 µM, first compound 3.16 µM) of the same compound?
**A.** 82.4%

**Q.** What about the viability, T/C (second compound 1 µM, first compound 10 µM) of the same compound?
**A.** 19.8%

**Q.** What about the viability, T/C (second compound 3.16 µM, first compound 0.0316 µM) of the same compound?
**A.** 99.8%

**Q.** What about the viability, T/C (second compound 3.16 µM, first compound 0.1 µM) of the same compound?
**A.** 103%

**Q.** What about the viability, T/C (second compound 3.16 µM, first compound 0.316 µM) of the same compound?
**A.** 100%

**Q.** And the viability, T/C (second compound 3.16 µM, first compound 1 µM)?
**A.** 102%

**Q.** What about the viability, T/C (second compound 3.16 µM, first compound 3.16 µM) of the same compound?
**A.** 75.7%

**Q.** What about the viability, T/C (second compound 3.16 µM, first compound 10 µM) of the same compound?
**A.** 21.9%

**Q.** And the viability, T/C (second compound 10 µM, first compound 0.0316 µM)?
**A.** 98.6%

**Q.** What about the viability, T/C (second compound 10 µM, first compound 0.1 µM) of the same compound?
**A.** 101%

**Q.** What about the viability, T/C (second compound 10 µM, first compound 0.316 µM) of the same compound?
**A.** 100%

**Q.** What about the viability, T/C (second compound 10 µM, first compound 1 µM) of the same compound?
**A.** 96.6%

**Q.** And the viability, T/C (second compound 10 µM, first compound 3.16 µM)?
**A.** 77.4%

**Q.** What about the viability, T/C (second compound 10 µM, first compound 10 µM) of the same compound?
**A.** 17.3%

**Q.** How did the viability, T/C (compound 0.0316 µM) turn out when `C#Cc1c(F)ccc2cc(O)cc(-c3ncc4c(N5CC6CCC(C5)N6)nc(OCC56CCCN5CC(F)C6)nc4c3F)c12` (stereo not given) was run?
**A.** 108% and 107% and 101%

**Q.** What about the viability, T/C (compound 0.1 µM) of the same compound?
**A.** 95.9% and 99.1% and 99.3%

**Q.** And the viability, T/C (compound 0.316 µM)?
**A.** 97.7% and 108% and 93.2%

**Q.** What about the viability, T/C (compound 1 µM) of the same compound?
**A.** 110% and 99.2% and 95%

**Q.** What about the viability, T/C (compound 3.16 µM) of the same compound?
**A.** 96% and 102% and 92.8%

**Q.** What about the viability, T/C (compound 10 µM) of the same compound?
**A.** 98.1% and 99.6% and 90.1%

**Q.** And the IC50 (curve of compound)?
**A.** > 10 µM

**Q.** `O=C(c1cc(Cc2n[nH]c(=O)c3ccccc23)ccc1F)N1CCN(C(=O)C2CC2)CC1` was tested. Which viability, T/C (compound 0.0316 µM) did it give?
**A.** 107% and 111% and 103%

**Q.** And the viability, T/C (compound 0.1 µM)?
**A.** 100% and 97.4% and 101%

**Q.** What about the viability, T/C (compound 0.316 µM) of the same compound?
**A.** 95.3% and 93.3% and 102%

**Q.** What about the viability, T/C (compound 1 µM) of the same compound?
**A.** 106% and 94% and 101%

**Q.** What about the viability, T/C (compound 3.16 µM) of the same compound?
**A.** 92% and 94% and 104%

**Q.** And the viability, T/C (compound 10 µM)?
**A.** 96.9% and 99.4% and 94.8%

**Q.** What about the IC50 (curve of compound) of the same compound?
**A.** > 10 µM
